Patent US20250339569A1, “CARBONIC ANHYDRASE IX LIGANDS” (priority 2021, published 2025)
Where two headings read alike, the source gives them in different places. Starred links: 1 amine or outer side, 2 acyl side, 3 side chain; linkers in the order of their positions; H or OH if unused. Positions of bridges follow the written chain, without caps; N, C: chain ends. Non-standard residues stand in square brackets, D forms with d. Residues, ends and D or L forms follow the SMILES beside them. *: point of attachment. NH(CH2)3NH(O2Oc(DOTA)) = O=C(O)CN1CCN(CC(=O)O)CCN(CC(=O)NCCOCCOCC(=O)NCCCN*)CCN(CC(=O)O)CC1; Phe(3-NHCO(CH2)3SO2NH2) = N[C@@H](Cc1cccc(NC(=O)CCCS(N)(=O)=O)c1)C(=O)O; DOTA = O=C(O)CN1CCN(CC(=O)O)CCN(CC(=O)*)CCN(CC(=O)O)CC1; Propanoyl(3-SO2NH2) = NS(=O)(=O)CCC(=O)*; Phe(4-NH2) = Nc1ccc(C[C@H](N)C(=O)O)cc1; mXylylene = c1cc(C[*:1])cc(C[*:2])c1; X2 = O=C(CN1CCC(N[*:1])CC1)[*:2]; X1 = O=C(CN1CCN([*:1])CC1)[*:2]; X31 = NS(=O)(=O)c1coc(C(=O)*)c1; Ac6c = NC1(C(=O)O)CCCCC1; Dap = NC[C@H](N)C(=O)O

Experiments:
[1] = target: T1, CAIX-expressing human HT-29 colorectal cancer cells (Homo sapiens, UniProt Q16790); test: FACS binding assay (IC50 determination, competition with tracer 3BP-2776 or 3BP-4149); details: 4° C., 1 hour, read-out: pIC50 category (activity) (converted)
T1 construct: CAIX-expressing human HT-29 colorectal cancer cells; host or cells: HT-29 human colorectal cancer cells
Summary of the method: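 HT-29 cells in FACS buffer (PBS, 1% FCS) at 500.000 cells/ml were exposed to compounds competing with a labelled tracer, with biotinylated compounds detected by 1 μg/mL APC-streptavidin for 30 min on ice. APC/Cy5 median fluorescence was read by flow cytometry and IC50 derived by 4PL fit.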

[2] = target: T2, human carbonic anhydrase IX (hCAIX-Fc) (Homo sapiens, UniProt Q16790); test: Surface plasmon resonance assay with hCAIX-Fc; format: binding; details: 25° C.; for t1/2 category (activity): SPR dissociation half-life, hCAIX-Fc; for Kd: SPR, hCAIX-Fc captured, read-out: pKD category (activity) (converted)
T2 construct: purchased SinoBliological (Sino Biological) 10107-H02H

[3] = Plasma stability assay, mouse plasma; details: mouse plasma, 37°C, 24 h
[4] = FACS binding assay, HT-29 cells, competition with tracer 3BP-2776 (10 nM, biotin-labeled)

SMILES | IC50 ([1]; FACS competition on HT-29 cells, Tracer ID 3BP-2776 (10 nM, biotin-labeled)) [nM] | t1/2 category (activity) [2] | Kd [2] [nM] | % intact compound remaining (incubation time) [3] [%] | IC50 [1, 4] [nM]
CC(C)[C@H](NC(=O)CN1CCC(NC(=O)CN2CCN(CC(=O)O)CCN(CC(=O)O)CCN(CC(=O)O)CC2)CC1)C(=O)N[C@@H](Cc1ccc(O)cc1)C(=O)N[C@H]1CSCc2cccc(c2)CSC[C@@H](C(N)=O)NC(=O)[C@H](CO)NC(=O)[C@H](Cc2c[nH]c3ccccc23)NC(=O)[C@H]([C@@H](C)O)NC(=O)C2(CCCCC2)NC(=O)[C@H](Cc2c[nH]c3ccccc23)NC(=O)[C@H](CC(=O)O)NC(=O)[C@H]2CCCN2C(=O)[C@H](CCC(=O)O)NC1=O [3BP-3584] ({DOTA}-[X2]VYCE[dP]DW[Ac6c]TWSC-NH2; linker 4-13 via mXylylene) | < 10 | B (t1/2 between 5.1 and 15.0 minutes) | < 10 | >95 | 
CC(=O)N[C@H](C(=O)N[C@@H](CCCNC(=N)N)C(=O)N[C@H]1CSCc2cccc(c2)CSC[C@@H](C(N)=O)NC(=O)[C@H](CCC(=O)NCCCNC(=O)COCCOCCNC(=O)CN2CCN(CC(=O)O)CCN(CC(=O)O)CCN(CC(=O)O)CC2)NC(=O)[C@H](Cc2c[nH]c3ccccc23)NC(=O)[C@H]([C@@H](C)O)NC(=O)[C@H](CC(C)C)NC(=O)[C@H](Cc2c[nH]c3ccccc23)NC(=O)[C@H](CC(=O)O)NC(=O)[C@H]2CCCN2C(=O)[C@H](CCC(=O)O)NC1=O)C(C)C [3BP-3845] (Ac-VRCE[dP]DWLTWE(NH(CH2)3NH(O2Oc(DOTA)))C-NH2; linker 3-12 via mXylylene) |  |  |  | 76 | 
CC(C)C[C@@H]1NC(=O)[C@H](Cc2c[nH]c3ccccc23)NC(=O)[C@H](CC(=O)O)NC(=O)[C@H]2CCCN2C(=O)[C@H](CCC(=O)O)NC(=O)[C@@H](NC(=O)[C@H](Cc2ccc(O)cc2)NC(=O)[C@@H](NC(=O)CN2CCC(NC(=O)CN3CCN(CC(=O)O)CCN(CC(=O)O)CCN(CC(=O)O)CC3)CC2)C(C)C)CSCc2cccc(c2)CSC[C@@H](C(N)=O)NC(=O)[C@H](CO)NC(=O)[C@H](Cc2c[nH]c3ccccc23)NC(=O)[C@H]([C@@H](C)O)NC1=O [3BP-3905] ({DOTA}-[X2]VYCE[dP]DWLTWSC-NH2; linker 4-13 via mXylylene) |  |  | < 10 | 83 | 
CC(C)C[C@@H]1NC(=O)[C@H](Cc2c[nH]c3ccccc23)NC(=O)[C@H](CC(=O)O)NC(=O)[C@H]2CCCN2C(=O)[C@H](CCC(=O)O)NC(=O)[C@@H](NC(=O)[C@H](Cc2ccc(O)cc2)NC(=O)CN2CCN(CC(=O)O)CCN(CC(=O)O)CCN(CC(=O)O)CC2)CSCc2cccc(c2)CSC[C@@H](C(N)=O)NC(=O)[C@H](CO)NC(=O)[C@H](Cc2c[nH]c3ccccc23)NC(=O)[C@H]([C@@H](C)O)NC1=O [3BP-3906] ({DOTA}-YCE[dP]DWLTWSC-NH2; linker 2-11 via mXylylene) |  |  | < 10 | >95 | 
CC(C)C[C@@H]1NC(=O)[C@H](Cc2c[nH]c3ccccc23)NC(=O)[C@@H]2CCCCNC(=O)CC[C@H](NC1=O)C(=O)N[C@@H](Cc1c[nH]c3ccccc13)C(=O)N[C@@H](CO)C(=O)N[C@H](C(N)=O)CSCc1cccc(c1)CSC[C@H](NC(=O)[C@H](Cc1ccc(O)cc1)NC(=O)CN1CCN(CC(=O)O)CCN(CC(=O)O)CCN(CC(=O)O)CC1)C(=O)N[C@@H](CCC(=O)O)C(=O)N1CCC[C@@H]1C(=O)N2 [3BP-4053] ({DOTA}-YCE[dP]KWLEWSC-NH2; linker 2-11 via mXylylene; lactam 5-8) |  |  |  | 91 | 
CC(C)C[C@@H]1NC(=O)[C@H](Cc2cccc(NC(=O)CCCS(N)(=O)=O)c2)NC(=O)[C@H](CC(=O)O)NC(=O)[C@H]2CCCN2C(=O)[C@H](CCC(=O)O)NC(=O)[C@@H]2CSCc3cccc(c3)CSC[C@@H](C(N)=O)NC(=O)[C@H](CNC(=O)CC[C@H](NC(=O)CN3CCN(C(=O)CN4CCN(CC(=O)O)CCN(CC(=O)O)CCN(CC(=O)O)CC4)CC3)C(=O)N2)NC(=O)[C@H](Cc2c[nH]c3ccccc23)NC(=O)[C@H]([C@@H](C)O)NC1=O [3BP-4502] ({DOTA}-[X1]ECE[dP]D[Phe(3-NHCO(CH2)3SO2NH2)]LTW[Dap]C-NH2; lactam 2-11; linker 3-12 via mXylylene) |  | A (t1/2>15.0 minutes) | < 10 |  | < 10

More lines, now with the values ahead:

IC50 ([1]; FACS competition on HT-29 cells, Tracer ID 3BP-2776 (10 nM, biotin-labeled)) [nM] | t1/2 category (activity) [2] | Kd [2] [nM] | % intact compound remaining (incubation time) [3] [%] | IC50 [1, 4] [nM] | SMILES
 | A (t1/2>15.0 minutes) | < 10 |  | < 10 | CC(C)C[C@@H]1NC(=O)[C@H](Cc2ccc(NC(=O)CCS(N)(=O)=O)cc2)NC(=O)[C@H](CC(=O)O)NC(=O)[C@H]2CCCN2C(=O)[C@H](CCC(=O)O)NC(=O)[C@@H]2CSCc3cccc(c3)CSC[C@@H](C(N)=O)NC(=O)[C@H](CNC(=O)CC[C@H](NC(=O)CN3CCN(C(=O)CN4CCN(CC(=O)O)CCN(CC(=O)O)CCN(CC(=O)O)CC4)CC3)C(=O)N2)NC(=O)[C@H](Cc2c[nH]c3ccccc23)NC(=O)[C@H]([C@@H](C)O)NC1=O [3BP-4504] ({DOTA}-[X1]ECE[dP]D[Phe(4-NH2)](Propanoyl(3-SO2NH2))LTW[Dap]C-NH2; lactam 2-11; linker 3-12 via mXylylene)
 | A (t1/2>15.0 minutes) | < 10 |  | < 10 | CC(C)C[C@@H]1NC(=O)[C@H](Cc2ccc(NC(=O)CCS(N)(=O)=O)cc2)NC(=O)[C@H](CC(=O)O)NC(=O)[C@H]2CCCN2C(=O)[C@H](CCC(=O)O)NC(=O)[C@@H]2CSCc3cccc(c3)CSC[C@@H](C(N)=O)NC(=O)[C@H](CNC(=O)CC[C@H](NC(=O)CN3CCN(CC(=O)O)CCN(CC(=O)O)CCN(CC(=O)O)CC3)C(=O)N2)NC(=O)[C@H](Cc2c[nH]c3ccccc23)NC(=O)[C@H]([C@@H](C)O)NC1=O [3BP-4505] ({DOTA}-ECE[dP]D[Phe(4-NH2)](Propanoyl(3-SO2NH2))LTW[Dap]C-NH2; lactam 1-10; linker 2-11 via mXylylene)
 | B (t1/2 between 5.1 and 15.0 minutes) | < 10 |  | < 10 | CC(C)C[C@@H]1NC(=O)[C@H](Cc2cccc(NC(=O)c3cccc(NS(N)(=O)=O)n3)c2)NC(=O)[C@H](CC(=O)O)NC(=O)[C@H]2CCCN2C(=O)[C@H](CCC(=O)O)NC(=O)[C@@H](NC(=O)[C@H](CCC(N)=O)NC(=O)CN2CCN(C(=O)CN3CCN(CC(=O)O)CCN(CC(=O)O)CCN(CC(=O)O)CC3)CC2)CSCc2cccc(c2)CSC[C@@H](C(N)=O)NC(=O)[C@H](CO)NC(=O)[C@H](Cc2c[nH]c3ccccc23)NC(=O)[C@H]([C@@H](C)O)NC1=O [3BP-4514]
 | C (t1/2 between 2.1 and 5.0 minutes) | < 10 |  | 10 to 79.4 | CC(C)C[C@@H]1NC(=O)[C@H](Cc2cccc(NC(=O)CCCC(=O)NO)c2)NC(=O)[C@H](CC(=O)O)NC(=O)[C@H]2CCCN2C(=O)[C@H](CCC(=O)O)NC(=O)[C@@H](NC(=O)[C@H](CCC(N)=O)NC(=O)CN2CCN(C(=O)CN3CCN(CC(=O)O)CCN(CC(=O)O)CCN(CC(=O)O)CC3)CC2)CSCc2cccc(c2)CSC[C@@H](C(N)=O)NC(=O)[C@H](CO)NC(=O)[C@H](Cc2c[nH]c3ccccc23)NC(=O)[C@H]([C@@H](C)O)NC1=O [3BP-4515]
 | A (t1/2>15.0 minutes) | < 10 |  | < 10 | CC(C)C[C@@H]1NC(=O)[C@H](Cc2cccc(NC(=O)c3cc(S(N)(=O)=O)co3)c2)NC(=O)[C@H](CC(=O)O)NC(=O)[C@H]2CCCN2C(=O)[C@H](CCC(=O)O)NC(=O)[C@@H](NC(=O)[C@H](CCC(N)=O)NC(=O)CN2CCN(C(=O)CN3CCN(CC(=O)O)CCN(CC(=O)O)CCN(CC(=O)O)CC3)CC2)CSCc2cccc(c2)CSC[C@@H](C(N)=O)NC(=O)[C@H](CO)NC(=O)[C@H](Cc2c[nH]c3ccccc23)NC(=O)[C@H]([C@@H](C)O)NC1=O [3BP-4788]
 | C (t1/2 between 2.1 and 5.0 minutes) | 10 to 79.4 |  | 10 to 79.4 | CC(C)C[C@@H]1NC(=O)[C@H](Cc2cccc(NC(=O)c3cc(S(N)(=O)=O)c[nH]3)c2)NC(=O)[C@H](CC(=O)O)NC(=O)[C@H]2CCCN2C(=O)[C@H](CCC(=O)O)NC(=O)[C@@H](NC(=O)[C@H](CCC(N)=O)NC(=O)CN2CCN(C(=O)CN3CCN(CC(=O)O)CCN(CC(=O)O)CCN(CC(=O)O)CC3)CC2)CSCc2cccc(c2)CSC[C@@H](C(N)=O)NC(=O)[C@H](CO)NC(=O)[C@H](Cc2c[nH]c3ccccc23)NC(=O)[C@H]([C@@H](C)O)NC1=O [3BP-4789]
 | A (t1/2>15.0 minutes) | < 10 |  | < 10 | CC(C)C[C@@H]1NC(=O)[C@H](Cc2cccc(NC(=O)Cn3cc(S(N)(=O)=O)cn3)c2)NC(=O)[C@H](CC(=O)O)NC(=O)[C@H]2CCCN2C(=O)[C@H](CCC(=O)O)NC(=O)[C@@H](NC(=O)[C@H](CCC(N)=O)NC(=O)CN2CCN(C(=O)CN3CCN(CC(=O)O)CCN(CC(=O)O)CCN(CC(=O)O)CC3)CC2)CSCc2cccc(c2)CSC[C@@H](C(N)=O)NC(=O)[C@H](CO)NC(=O)[C@H](Cc2c[nH]c3ccccc23)NC(=O)[C@H]([C@@H](C)O)NC1=O [3BP-4790]
 | C (t1/2 between 2.1 and 5.0 minutes) | 10 to 79.4 |  | 10 to 79.4 | CC(C)C[C@@H]1NC(=O)[C@H](Cc2ccc(NC(=O)c3cc(S(N)(=O)=O)co3)cc2)NC(=O)[C@H](CC(=O)O)NC(=O)[C@H]2CCCN2C(=O)[C@H](CCC(=O)O)NC(=O)[C@@H](NC(=O)[C@H](CCC(N)=O)NC(=O)CN2CCN(C(=O)CN3CCN(CC(=O)O)CCN(CC(=O)O)CCN(CC(=O)O)CC3)CC2)CSCc2cccc(c2)CSC[C@@H](C(N)=O)NC(=O)[C@H](CO)NC(=O)[C@H](Cc2c[nH]c3ccccc23)NC(=O)[C@H]([C@@H](C)O)NC1=O [3BP-4813] ({DOTA}-[X1]QCE[dP]D[Phe(4-NH2)](X31)LTWSC-NH2; linker 3-12 via mXylylene)
